Results on 3 molecules are retold here after ChEMBL document CHEMBL4118032, “Geranylpyrrol A and Piericidin F from Streptomyces sp. CHQ-64 ΔrdmF” (J Nat Prod, 2017).

Structures can show the parent of a compound that is named as a salt. Some results are limits rather than exact numbers.

What all share (format): functional, cell-based
For one experiment, the system named is HCT-116. Briefly: Cytotoxicity against human HCT116 cells after 24 hrs by sulforhodamine B assay. As to conditions: HCT-116, 24 h.
Experiment [1] can be described thus: Cytotoxicity against human MCF7/ADM cells after 24 hrs by sulforhodamine B assay.
The next experiment has as its system HeLa. In words: Cytotoxicity against human HeLa cells after 24 hrs by sulforhodamine B assay.
Another experiment has as its system A549. In words: Cytotoxicity against human A549 cells after 24 hrs by sulforhodamine B assay. Conditions: A549, 24 h.
The next experiment deals with K562. In words: Cytotoxicity against human K562 cells after 72 hrs by MTT assay. As to conditions: K562, 72 h.
The test system of a further experiment is NB-4. Briefly: Cytotoxicity against human NB4 cells after 72 hrs by MTT assay. As to conditions: NB-4, 72 h.
For the next experiment, the system named is NCI-H1975. In words: Cytotoxicity against human NCI-H1975 cells after 24 hrs by sulforhodamine B assay. As to conditions: NCI-H1975, 24 h.
The test system of the next experiment is HL-60. In words: Cytotoxicity against human HL60 cells after 72 hrs by MTT assay. As to conditions: HL-60, 72 h.

Consider `C/C=C(\C)[C@H](OC)[C@H](C)/C=C(C)/C=C/C/C(C)=C/Cc1nc(OC)cc(O)c1C`, for which the IC50 in the experiment on HCT-116 was over 30 µM; in experiment [1], over 30 µM; with HeLa it was 3 nM; in the experiment with A549 it was 560 nM; with K562, over 30 µM; with NB-4 it was 37 nM. Moreover, the half-inhibitory concentration (IC50) was 490 nM with NCI-H1975 and over 30 µM in the experiment with HL-60.
In the case of `COc1cccc2c1C(=O)c1c(O)c3c(c(O)c1C2=O)C[C@@](O)(C(=O)CO)C[C@@H]3O[C@H]1C[C@H](N)[C@H](O)[C@H](C)O1` [DOXORUBICIN HYDROCHLORIDE], the IC50 in experiment [1] turned out to be 25.2 µM; with NB-4 it was 400 nM; in the experiment with NCI-H1975 it was 200 nM.
With `COC(=O)c1[nH]cc(C/C=C(\C)CCC=C(C)C)c1NC(C)=O`, the 50% inhibitory concentration (IC50) is over 30 µM with HCT-116; over 30 µM in experiment [1]; over 30000 nM in the experiment on HeLa; over 30000 nM with A549; over 30 µM in the experiment with K562; over 30000 nM with NB-4. The 50% inhibitory concentration (IC50) in the experiment on NCI-H1975 is over 30000 nM; with HL-60, over 30 µM.
